Experimental data published in patent US8329639B2, “MUC1 based glycolipopeptide vaccine with adjuvant” (priority 2011, dated 2012).

What was measured:
MC38-MUC1 tumor cells = experiment: Tumor growth, MC38-MUC1 model; assay type: in vivo, C57B1/6 mice; conditions: vaccine 5 μg, Liposomal PET Lipid A 50 μg
Experimental: (§1) C57B1/6 mice were treated using a bi-weekly schedule with saline vehicle, 50 μg Liposomal PET Lipid A or 5 μg of liposomal vaccine formulation of Example 1 starting on day −42. On Day 0, mice were challenged with either 2×10^6 B16-MUC1, 0.5×10^6 B16, or 2×10^6MC38-MUC1 tumor cells followed by two additional vaccinations on days +3 and +17. Tumor growth was recorded twice weekly.
In the MC38-MUC1 model, 3/12 animals were tumor free in the Example 1 vaccine formulation group at the end of the study. […] By Day 32, mean tumor volume was about 120 mm^3 for the Example 1 vaccine formulation group as compared to about 1200 mm^3 for the PET lipid A group and about 1700 mm^3 for the saline group.

[1] = test system: MUC1 antigen having SEQ ID NO: 2; experiment: Humoral response: serum IgG ELISA on plates coated with MUC1 antigen; assay type: in vivo, C57B1/6J mice; conditions: vaccine 5, 25 and 100 μg/mouse; PET lipid A 50 μg; serially diluted sera
Experimental: C57B1/6J mice were injected with a liposomal vaccine formulation of Example 1 in three different concentrations of vaccine (5, 25 and 100 μg). 50 μg dose of PET lipid A and saline were used as a negative control. Sera from the mice were isolated and subsequently serially diluted and incubated onto plates coated with MUC1 antigen having SEQ ID NO: 2. After incubation with sera, the plates were washed and a labeled anti-mouse IgG specific antibody was added. The antibody was washed off and the mouse IgG was measured via an ELISA reader.

B16-MUC1 tumor cells = experiment: Tumor growth, B16-MUC1 model; assay type: in vivo, C57B1/6 mice; conditions: 50 μg Liposomal PET Lipid A, value stated jointly with saline group
Experimental: as §1
In the B16-MUC1 model, animals treated with the Example 1 vaccine formulation had no tumors at Day 44. 9/12 animals were tumor free in the Example 1 vaccine formulation group at end of study. […] Mean tumor volume in these two groups was about 200 mm^3 by Day 10. By Day 24, mean tumor volume was about 1200 mm^3 for the saline and PET lipid A groups.

With “pentaerythritol-6-chain-C14-glucosamine-mono-phosphate [PET lipid A]” the “mean tumor volume by Day 32” value (MC38-MUC1 tumor cells) was “about 1200 mm^3”, the “antibody (IgG) response by ELISA” value [1] was “no antibody response” and the “mean tumor volume by Day 10” value (B16-MUC1 tumor cells) was “about 200 mm^3”. The “mean tumor volume by Day 24” value (B16-MUC1 tumor cells) was “about 1200 mm^3”.
